pKi: −log10 of the molar value.

Results on 8 compounds are retold here after US8637671B2, “Indole derivatives as CRTH2 receptor antagonists” (Merck Canada Inc., priority 2008, dated 2014).

This experiment addresses T1, hCRTH2 (Homo sapiens, UniProt Q9Y5Y4).
T1 sequence (Q9Y5Y4 1-395): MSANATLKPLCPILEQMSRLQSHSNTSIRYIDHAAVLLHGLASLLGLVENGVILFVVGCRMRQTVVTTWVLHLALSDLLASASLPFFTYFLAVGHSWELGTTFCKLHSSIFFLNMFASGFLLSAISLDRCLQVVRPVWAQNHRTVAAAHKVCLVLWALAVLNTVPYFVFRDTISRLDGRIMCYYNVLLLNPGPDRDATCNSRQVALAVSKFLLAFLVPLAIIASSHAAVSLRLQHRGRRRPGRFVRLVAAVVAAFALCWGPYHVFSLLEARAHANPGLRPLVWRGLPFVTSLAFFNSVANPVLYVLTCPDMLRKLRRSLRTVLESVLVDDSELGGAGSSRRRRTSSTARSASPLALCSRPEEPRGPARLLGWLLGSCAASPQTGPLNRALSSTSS
Kind of experiment: Radioligand binding assay ([3H]PGD2 competition).
Experimental: Radioligand binding assay. […] Competing ligands were diluted in dimethylsulfoxide (Me2SO) that was kept constant at 1% (v/v) of the final incubation volume. The reaction was initiated by the addition of 8-20 μg of membrane protein prepared from a HEK-hCRTH2 cell line. Total and non-specific binding were determined in the absence and the presence of 10 μM PGD2, respectively. Under these conditions, specific binding (total minus non-specific) of the radioligand to the receptor reached equilibrium within 50 min and was stable up to 180 min. The reaction was routinely conducted for 60 min at room temperature and terminated by rapid filtration through prewetted Unifilters GF/C (Packard), using a Tomtec MachIII semi-automated harvester (for HEK-hCRTH2). The filters were then washed with 4 ml of the same buffer and residual radioligand bound to the filter was determined by liquid scintillation counting following equilibration in 25 μl Ultima Gold F™ (Unifilter) (Packard).
For the compound `CC(C(=O)N(C)[C@@H]1CCc2c(CC(=O)O)c3ccccc3n2C1)c1ccccc1` (stereo partly drawn) [Example 30, ((7R)-7-{methyl [2-phenylpropanoyl]amino}-6,7,8,9-tetrahydropyrido[1,2-a]indol-10-yl)acetic acid], the negative-log Ki (pKi) was not below 8.30.

`CN(C(=O)C1(c2ccc(Cl)cc2)CCCC1)[C@@H]1CCc2c(CC(=O)O)c3ccccc3n2C1` [Example 20, {(7R)-7-[{[1-(4-chlorophenyl)cyclopentyl]carbonyl}(methyl)amino]-6,7,8,9-tetrahydropyrido[1,2-a]indol-10-yl}acetic acid] had a pKi not below 8.30.

`O=C(O)Cc1c2n(c3ccccc13)C[C@H](N(Cc1ccc(F)cc1)C(=O)Cc1ccc(F)cc1)CC2` [Example 3, ((7R)-7-{(4-fluorobenzyl)[(4-fluorophenyl)acetyl]amino}-6,7,8,9-tetrahydropyrido[1,2-a]indol-10-yl)acetic acid] gave a pKi not below 8.30.

As to `CN(C(=O)Cc1ccc(F)cc1Br)[C@@H]1CCc2c(CC(=O)O)c3ccccc3n2C1` [Example 34, {(7R)-7-[[(2-bromo-4-fluorophenyl)acetyl](methyl)amino]-6,7,8,9-tetrahydropyrido[1,2-a]indol-10-yl}acetic acid], the pKi is 7.00 to 7.30.

With `CN(C(=O)CCc1ccccc1)[C@@H]1CCc2c(CC(=O)O)c3ccccc3n2C1` [Example 29, {(7R)-7-[methyl(3-phenylpropanoyl)amino]-6,7,8,9-tetrahydropyrido[1,2-a]indol-10-yl}acetic acid], the pKi was 8.00 to 8.30.

For the compound `COC(C(=O)N(C)[C@@H]1CCc2c(CC(=O)O)c3ccccc3n2C1)c1ccccc1` (stereo partly drawn) [Example 36, {(7R)-7-[[-2-methoxy-2-phenylacetyl](methyl)amino]-6,7,8,9-tetrahydropyrido[1,2-a]indol-10-yl}acetic acid], the pKi was 7.30 to 8.00.

`CN(C(=O)C1(c2ccc(F)cc2)CC1(C)C)[C@@H]1CCc2c(CC(=O)O)c3ccccc3n2C1` (stereo partly drawn) [Example 35, {(7R)-7-[{[1-(4-fluorophenyl)-2,2-dimethylcyclopropyl]carbonyl}(methyl)amino]-6,7,8,9-tetrahydropyrido[1,2-a]indol-10-yl}acetic acid] showed a pKi not below 8.30.

As to `CN(C(=O)C(C)(C)Cc1ccccc1)[C@@H]1CCc2c(CC(=O)O)c3ccccc3n2C1` [Example 26, {(7R)-7-[(2,2-dimethyl-3-phenylpropanoyl)(methyl)amino]-6,7,8,9-tetrahydropyrido[1,2-a]indol-10-yl}acetic acid], the pKi is 8.00 to 8.30.
